Source: patent US6608082B1, “Treatment of erectile dysfunction using isoquinoline compound melanocortin receptor ligands” (Lion Bioscience AG, priority 1998, dated 2003)
Like-named read-outs stand apart in the source and are kept apart here. One block for each compound: values may come before it.

Legend:
MCR-4 = molecular target: T1, MCR-4 (Homo sapiens, UniProt P32245); assay: Melanocortin receptor binding assay, competition with 125I-HP 467, HEK 293 cells expressing hMCR-4; conditions: for IC50: read-out: MC-4 IC50
T1 construct: expressed in transfected cells; host or cells: HEK 293
T1 sequence (P32245 whole entry): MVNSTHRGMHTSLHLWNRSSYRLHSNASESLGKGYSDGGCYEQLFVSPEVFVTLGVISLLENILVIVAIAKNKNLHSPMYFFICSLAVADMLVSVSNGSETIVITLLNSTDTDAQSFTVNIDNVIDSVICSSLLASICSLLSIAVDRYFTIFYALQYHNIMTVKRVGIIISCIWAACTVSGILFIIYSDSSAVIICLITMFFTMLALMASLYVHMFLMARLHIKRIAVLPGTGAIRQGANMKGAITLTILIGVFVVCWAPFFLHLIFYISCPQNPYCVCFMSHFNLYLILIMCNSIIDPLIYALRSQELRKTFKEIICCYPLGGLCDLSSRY
Summary of the method: (§1)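 Intact-cell competition binding, 2.5 hr at 37 °C, in PBS/10% calf serum/1 mM CaCl2; hMCR-4 cells at 4×10^3 per tube, hMCR-1 cells at 2×10^4 per tube. Filtration on BSA/CaCl2-soaked GF/B, cold 50 mM Tris pH 7.4 washes, scintillation count.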

MCR-1 = molecular target: T2, MCR-1 (Homo sapiens, UniProt Q01726); assay: Melanocortin receptor binding assay, competition with 125I-HP 467, HEK 293 cells expressing hMCR-1; conditions: for IC50: read-out: MC-1 IC50
T2 construct: expressed in transfected cells; host or cells: HEK 293
T2 sequence (Q01726 whole entry): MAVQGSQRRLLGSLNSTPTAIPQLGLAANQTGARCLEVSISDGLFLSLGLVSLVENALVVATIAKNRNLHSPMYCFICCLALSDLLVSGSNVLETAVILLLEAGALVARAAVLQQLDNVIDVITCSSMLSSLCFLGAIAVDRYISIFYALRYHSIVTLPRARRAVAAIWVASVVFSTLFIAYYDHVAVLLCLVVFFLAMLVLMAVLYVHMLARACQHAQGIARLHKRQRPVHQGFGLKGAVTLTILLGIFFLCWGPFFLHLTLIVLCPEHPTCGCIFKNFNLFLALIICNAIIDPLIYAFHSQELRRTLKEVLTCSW
Summary of the method: as §1

[1] = inhibition of binding of 125I-HP 467, HEK 293 cells expressing MCR-4
[2] = inhibition of binding of 125I-HP 467, HEK 293 cells expressing MCR-1
[3] = inhibition of binding of 125I-HP 467, HEK 293 cells expressing MCR-4, TRG 2414 library
[4] = inhibition of binding of 125I-HP 467, HEK 293 cells expressing MCR-1, TRG 2414 library
[5] = TRG 2414 library, inhibition of binding of 125I-HP 467, HEK 293 cells expressing MCR-4
[6] = TRG 2414 library, inhibition of binding of 125I-HP 467, HEK 293 cells expressing MCR-1
[7] = TRG 2406 and TRG 2407 libraries, inhibition of binding of 125I-HP 467
[8] = TRG 2408 and TRG 2409 libraries, inhibition of 125I-HP 467 binding

Structure (SMILES): CCOc1ccccc1CNCC1c2ccccc2CN(CCCCC(N)CN)C1c1cc(C(F)(F)F)cc(C(F)(F)F)c1 (stereo not drawn) [TRG 2414-45]
IC50 (MCR-4; [3]): 0.92 µM
IC50 (MCR-1; [4]): 6.34 µM

Structure (SMILES): NCC(CCCCN1Cc2ccccc2C(CNCCc2cccc(Cl)c2)C1c1ccc(Oc2ccccc2)cc1)NCc1ccccc1 (stereo not drawn) [TRG 2414-135]
IC50 (MCR-4; [3]): 46 µM
IC50 (MCR-1; [4]): 10.1 µM

Structure (SMILES): CCCCCc1ccc(C2C(CO)c3ccccc3CN2CCCC(CN)NCCC2CCCCC2)cc1 (stereo not drawn) [TRG 2415-8]
IC50 (MCR-4; [1]): 13.8 µM
IC50 (MCR-1; [2]): 6.21 µM

Structure (SMILES): COc1ccc(CNC(CN)CCCCN2Cc3ccccc3C(CNCCc3ccc(O)cc3)C2c2cc(C(F)(F)F)cc(C(F)(F)F)c2)cc1 (stereo not drawn) [TRG 2421-9]
IC50 (MCR-4; [1]): 1.75 µM
IC50 (MCR-1; [2]): 1.5 µM

Structure (SMILES): CC(C)Cc1ccc(C(C)CNC(CN)CCCCN2Cc3ccccc3C(CNCc3ccccc3)C2c2cccc(Oc3ccccc3)c2)cc1 (stereo not drawn) [TRG 2414-112]
IC50 (MCR-4; [3]): 51.3 µM
MC-1 IC50 (MCR-1; [4]): no fit

Structure (SMILES): CCNc1ccc(C2C(CNCCc3ccccc3)c3ccccc3CN2CCCC(CN)NCCCCCNCCc2ccccc2)cc1 (stereo not drawn) [TRG 2420-4]
IC50 (MCR-4; [1]): 4.17 µM
IC50 (MCR-1; [2]): 0.068 µM

Structure (SMILES): CC(C)Cc1ccc(C(C)CNC(CN)CCCCN2Cc3ccccc3C(CNCCc3cccc(Cl)c3)C2c2ccc(Oc3ccccc3)cc2)cc1 (stereo not drawn) [TRG 2414-136]
MC-4 IC50 (MCR-4; [3]): no fit
MC-1 IC50 (MCR-1; [4]): no fit

Structure (SMILES): NCC(CCCCN1Cc2ccccc2C(CNC2CCCCC2)C1c1ccccc1Br)NCCc1ccccc1 (stereo not drawn) [Cmpd 238]
IC50 (MCR-4; [5]): 5.22 µM
IC50 (MCR-1; [6]): 2.78 µM

Structure (SMILES): COc1ccc(CCNCC2c3ccccc3CN(CCCCC(CN)NCc3ccc(OC)cc3)C2c2cc(C(F)(F)F)cc(C(F)(F)F)c2)cc1 (stereo not drawn) [TRG 2421-14]
IC50 (MCR-4; [1]): 1.69 µM
IC50 (MCR-1; [2]): 3.47 µM

Structure (SMILES): CC(C)Cc1ccc(C(C)CNC(CN)CCCCN2Cc3ccccc3C(CNC3CCCCCC3)C2c2cccc(Oc3ccccc3)c2)cc1 (stereo not drawn) [TRG 2414-116]
MC-4 IC50 (MCR-4; [3]): no fit
IC50 (MCR-1; [4]): 53.7 µM

Structure (SMILES): NCC(N)CCCCN1Cc2ccccc2C(CNC2CCCCC2)C1c1ccc(Cl)cc1Cl (stereo not drawn) [TRG 2408-13]
IC50 (MCR-4; [8]): 1.58 µM
IC50 (MCR-1; [8]): 1.72 µM

Structure (SMILES): COc1ccc(CNCC2c3ccccc3CN(CCCCC(CN)NCC(C)c3ccc(CC(C)C)cc3)C2c2cc(C(F)(F)F)cc(C(F)(F)F)c2)cc1 (stereo not drawn) [TRG 2414-64]
IC50 (MCR-4; [3]): 45.5 µM
IC50 (MCR-1; [4]): 34.5 µM

Structure (SMILES): NCC(CCCCN1Cc2ccccc2C(CNCCc2ccccc2)C1c1cc(C(F)(F)F)cc(C(F)(F)F)c1)NCc1ccc(Br)cc1 (stereo not drawn) [TRG 2421-3]
IC50 (MCR-4; [1]): 9.64 µM
IC50 (MCR-1; [2]): 4.91 µM

Other lines, results leading:

IC50 (MCR-4; [1]): 4.19 µM
IC50 (MCR-1; [2]): 0.04 µM
Structure (SMILES): CCNc1ccc(C2C(CN)c3ccccc3CN2CCCC(CN)NCC2CC2CN(CC)CC)cc1 (stereo not drawn) [TRG 2420-27]

IC50 (MCR-4; [3]): 6.21 µM
IC50 (MCR-1; [4]): 5.39 µM
Structure (SMILES): NCC(CCCCN1Cc2ccccc2C(CNCc2ccccc2)C1c1ccc(Cl)cc1Cl)NCCc1ccccc1 (stereo not drawn) [TRG 2414-30]

IC50 (MCR-4; competition with 125I-HP 467, HEK 293 cells expressing MCR-4): 16.9 µM
IC50 (MCR-1; competition with 125I-HP 467, HEK 293 cells expressing MCR-1): 7.51 µM
Structure (SMILES): CNC(CN)CCCCN1Cc2ccccc2C(CNC2CCCCC2)C1c1ccc(NCc2ccc(OC)cc2)cc1 (stereo not drawn) [TRG 2409-18]

IC50 (MCR-4; [3]): 39.6 µM
IC50 (MCR-1; [4]): 15.7 µM
Structure (SMILES): CCCOc1ccc(C2C(CNCCc3ccccc3OC)c3ccccc3CN2CCCCC(CN)NCC(C)c2ccc(CC(C)C)cc2)cc1 (stereo not drawn) [TRG 2414-172]

IC50 (MCR-4; [3]): 8.22 µM
IC50 (MCR-1; [4]): 4.97 µM
Structure (SMILES): COc1cccc(CNCC2c3ccccc3CN(CCCCC(CN)NCCc3ccccc3)C2c2ccc(Cl)cc2Cl)c1 (stereo not drawn) [TRG 2414-18]

MC-4 IC50 (MCR-4; [5]): no fit
MC-1 IC50 (MCR-1; [6]): no fit
Structure (SMILES): COc1ccc(CNCC2c3ccccc3CN(CCCCC(N)CN)C2c2ccc(Cl)cc2Cl)cc1 (stereo not drawn) [Cmpd 247]

MC-4 IC50 (MCR-4; [7]): no fit
IC50 (MCR-1; [7]): 0.84 µM
Structure (SMILES): CCNc1ccc(C2C(CNc3cccc(O)c3)c3ccccc3CN2CCCCC(CN)NC)cc1 (mixture of isomers) [TRG 2407-47]

IC50 (MCR-4; [7]): 0.83 µM
IC50 (MCR-1; [7]): 0.7 µM
Structure (SMILES): CNC(CN)CCCCN1Cc2ccccc2C(CNCCCc2ccccc2)C1c1ccc(Cl)cc1Cl (stereo not drawn) [TRG 2407-26]

IC50 (MCR-4; [8]): 12.7 µM
IC50 (MCR-1; [8]): 3.78 µM
Structure (SMILES): NCCNC(CN)CCN1Cc2ccccc2C(CNC2CCCCC2)C1c1ccc(-c2ccccc2)cc1 (stereo not drawn) [TRG 2408-113]

IC50 (MCR-4; [7]): 10.4 µM
IC50 (MCR-1; [7]): 1.15 µM
Structure (SMILES): CCNc1ccc(C2C(CNc3ccccc3OC)c3ccccc3CN2CCCCC(CN)NC)cc1 (stereo not drawn) [TRG 2407-44]

IC50 (MCR-4; [1]): 0.35 µM
IC50 (MCR-1; [2]): 0.1 µM
Structure (SMILES): CCNc1ccc(C2C(CNCCc3ccccc3)c3ccccc3CN2CCCC(CN)NCc2ccc(Cl)cc2)cc1 (stereo not drawn) [TRG 2411-159]
